Where two headings read alike, the source gives them in different places. One block for each compound: values may come before it.
Assays:
PI3Kδ = biological target: T1, PI3Kδ (Homo sapiens, UniProt O00329); assay: PI3K enzyme inhibition assay (ADP-Glo), PI3Kδ; assay type: biochemical; details: mean ± SD of three experiments
T1 construct: purchased BPS Bioscience, San Diego, CA
Description: (§2) The inhibition activities of 4d and 7f against PI3K enzyme were detected using PI3K assay kits and ADP-Glo kinase assay as a detection buffer (BPS Bioscience, San Diego, CA). According to the manufacturer’s instructions, PI3K enzyme was diluted with 2.5x Kinase assay buffer to obtain 4 ng/µl. The assay was performed in 96 well plates as follows: 5 µl of PIP2 substrate was added to each well followed by 5 ul from each inhibitor except for the positive control and blanks where the inhibitor buffers were added instead. Of 5 ul of 12.5 µM ATP was added. The reactions were initiated by adding 10 µl of diluted PI3K enzyme to the positive control and inhibitors wells. Plate was carefully shaked and was incubated at 30 °C for 40 min. After the 40 min incubation, 25 µl of ADP-Glo reagent were added to each well. The plate was covered with aluminium foil and incubated at room temperature for another 45 min. Of 50 µl of Kinase Detection reagent was added to each well. Plate was covered with aluminium foil and incubated at room temperature for extra 30 min. Luminescence was measured using microplate reader. Four concentrations from the two tested compounds ranged from (0.1 to 100 µM) were prepared and the experiment was repeated in triplicate. […] IC50 values were calculated using dose-response curves and linear regression equation.

K562 cells [1] = assay: Annexin-V-FITC apoptosis assay; assay type: cell-based; details: K562, 48 h
Description: Apoptosis induction was assayed by staining K562 cells with Annexin-V (fluorescein isothiocyanate) and the counterstaining PI using the Annexin-V-FITC/PI apoptosis detection kit (BD Biosciences, San Diego, CA) according to the manufacturer’s instructions. Cells were exposed to the tested compound for 48 h. After that, the cells were collected by trypsinisation and 0.5 × 10^6 cells and washed twice with phosphate-buffered saline (PBS) followed by staining with 5 µl Annexin-V-FITC and 5 µl PI in 1 × binding buffer for 15 min at room temperature in the dark. FACS Calibre flow cytometer (BD Biosciences, San Diego, CA)[26]^,[36]^,[37] was used for analyses.
Data of the current research highlighted that treating Leukaemia K562 cells for 48 h with the compound 7f caused an increase in the percentage of Annexin-V positive apoptotic cells both in the early and late stage which represents a total significant 17-fold increase compared to the control.

NFkb = assay: Western blot, NFkb expression in K562; assay type: cell-based; details: K562, 48 h; control 0.719
Description: (§1) K562 cells were treated with the most promising compound (7f), for 48 h. Protein from control and treated cells was harvested and the concentration was measured via Bradford protein assay (Bio-Rad, Hercules, CA). The samples were loaded and separated by sodium dodecyl sulphate (SDS)-polyacrylamide gel electrophoresis and then transferred onto a polyvinylidene difluoride (PVDF) membrane. Western blot analysis was performed according to previously described.

[2] = test system: leukaemia (K562) cell line; assay: MTT colorimetric cytotoxicity assay, K562; assay type: cell-based; details: Homo sapiens, 48 h incubation, mean ± SD of three experiments
Description: (§3) Cytotoxicity of our sixteen innovative compounds 4(a–e), 5(a–d), 6, and 7(a–f) together with control was assessed by means of in-vitro toxicology assay kit, MTT based (Sigma Aldrich, St. Louis, MO) against MCF-7 and K562 cell lines incubated in 96 microwell plates and proceeded as reported[32]^,[33]. MTT (3-[4,5-dimethylthiazol-2-yl]-2,5-diphenyl tetrazolium bromide) method measures the activity of living cells through mitochondrial dehydrogenase. Mitochondrial dehydrogenases of viable cells cleave the tetrazolium ring, giving purple formazan crystals that are dissolved in acidified isopropanol and the resulting purple solution is measured spectrophotometrically. The change in cell number is proportional to the intensity of purple colour produced and the degree of cytotoxicity caused by the test compounds. The absorbance at a wavelength of 570 nm was measured using (ROBONIK P2000 spectrophotometer) and the background absorbance of multi-well plates at 690 nm then the absorbance at 690 nm was subtracted from the 570 nm measurement. Five concentrations from each test compound ranging from (0.04 to 100 µM) were prepared and the experiments were done in triplicate.

K562 cells [3] = assay: Cell cycle analysis (PI flow cytometry); assay type: cell-based
Description: Cell cycle analysis was determined by propidium iodide (PI) flow cytometry kit/BD. K562 cells were treated by compound 7f at its IC50 concentration. Then cells were washed in PBS, fixed in cold 70% ethanol for 30 min, washed twice in PBS, and centrifuged to remove supernatant, after that, cells were treated with 0.1 mg/ml ribonuclease, stained with 0.05 mg/ml PI. The results were analysed by flow cytometry using FACS calibre and cell cycle distribution were calculated and accomplished as reported[26]^,[34]^,[35].
As reported in the literature, inhibition of PI3K/AKT pathway affects the cell survival and proliferation[8]^,[9]. Thus, to investigate the effect of compound 7f in PI3K/Akt dual inhibition on cell cycle progression, cell cycle analysis was performed by flowcytometric analysis as reported[34]^,[35] on K562 cells treated with compound 7f. The outcomes presented in Table 4 indicated the interference with the cell cycle distribution, following 7f treatment, where there was a marked increase in the cells in pre-G1 phase by nearly 17-fold as compared to the control.

p-PI3K = assay: Western blot, p-PI3K expression in K562; assay type: cell-based; details: K562, 48 h; control 0.639
Description: as §1

[4] = In-vivo acute toxicity study; details: rat, 2 g/kg, female rats, po, observed 14 d, read-out: median lethal dose (LD50)
Description: Five female rats (180–200 g) were used in this test. The animals were fasted for 24 h prior to administration of the test compound. The compound was administered in a dose of 2 g/kg body weight, po . Animals are observed individually and the mortalities were recorded at least once during the first 30 min after dosing, periodically during the first 24 h and daily afterwards, for a total of 14 d[40]. All animals received humane care and experimental procedures were carried out in strict accordance with the health and care guidelines for experimental animals. All experimental operations performed on rats were approved by the Animal Experiment Ethics Committee of Heliopolis University (Approval number HU.REC.A0.23-2021).
The toxicological profile of the most promising synthesised anticancer compound 7f was evaluated in female rats using the reported method in OECD guidelines. […]

[5] = test system: normal fibroblast cell line (WI-38); assay: Cytotoxicity on normal fibroblast cell line; assay type: cell-based; details: WI-38 versus K562
[6] = Cytotoxicity on normal fibroblast cell line; assay type: cell-based; details: human, WI-38 normal fibroblast cells; non-tumorigenic cell line
AKT = assay: Western blot, AKT expression in K562; assay type: cell-based; details: K562, 48 h; control 0.744
Description: as §1

p-AKT = assay: Western blot, p-AKT expression in K562; assay type: cell-based; details: K562, 48 h; control 0.692
Description: as §1

[7] = test system: breast cancer (MCF-7) cell line; assay: MTT colorimetric cytotoxicity assay, MCF-7; assay type: cell-based; details: Homo sapiens, MCF7, 48 h incubation, mean ± SD of three experiments
Description: as §3

PI3K = assay: Western blot, PI3K expression in K562; assay type: cell-based; details: K562, 48 h; control 0.881
Description: as §1

Cyclin D1 = assay: Western blot, Cyclin D1 expression in K562; assay type: cell-based; details: K562, 48 h; control 0.849
Description: as §1

PI3Kγ = biological target: T2, PI3Kγ (Homo sapiens, UniProt P48736); assay: PI3K enzyme inhibition assay (ADP-Glo), PI3Kγ; assay type: biochemical; details: mean ± SD of three experiments
T2 construct: purchased BPS Bioscience, San Diego, CA
T2 sequence (P48736 whole entry): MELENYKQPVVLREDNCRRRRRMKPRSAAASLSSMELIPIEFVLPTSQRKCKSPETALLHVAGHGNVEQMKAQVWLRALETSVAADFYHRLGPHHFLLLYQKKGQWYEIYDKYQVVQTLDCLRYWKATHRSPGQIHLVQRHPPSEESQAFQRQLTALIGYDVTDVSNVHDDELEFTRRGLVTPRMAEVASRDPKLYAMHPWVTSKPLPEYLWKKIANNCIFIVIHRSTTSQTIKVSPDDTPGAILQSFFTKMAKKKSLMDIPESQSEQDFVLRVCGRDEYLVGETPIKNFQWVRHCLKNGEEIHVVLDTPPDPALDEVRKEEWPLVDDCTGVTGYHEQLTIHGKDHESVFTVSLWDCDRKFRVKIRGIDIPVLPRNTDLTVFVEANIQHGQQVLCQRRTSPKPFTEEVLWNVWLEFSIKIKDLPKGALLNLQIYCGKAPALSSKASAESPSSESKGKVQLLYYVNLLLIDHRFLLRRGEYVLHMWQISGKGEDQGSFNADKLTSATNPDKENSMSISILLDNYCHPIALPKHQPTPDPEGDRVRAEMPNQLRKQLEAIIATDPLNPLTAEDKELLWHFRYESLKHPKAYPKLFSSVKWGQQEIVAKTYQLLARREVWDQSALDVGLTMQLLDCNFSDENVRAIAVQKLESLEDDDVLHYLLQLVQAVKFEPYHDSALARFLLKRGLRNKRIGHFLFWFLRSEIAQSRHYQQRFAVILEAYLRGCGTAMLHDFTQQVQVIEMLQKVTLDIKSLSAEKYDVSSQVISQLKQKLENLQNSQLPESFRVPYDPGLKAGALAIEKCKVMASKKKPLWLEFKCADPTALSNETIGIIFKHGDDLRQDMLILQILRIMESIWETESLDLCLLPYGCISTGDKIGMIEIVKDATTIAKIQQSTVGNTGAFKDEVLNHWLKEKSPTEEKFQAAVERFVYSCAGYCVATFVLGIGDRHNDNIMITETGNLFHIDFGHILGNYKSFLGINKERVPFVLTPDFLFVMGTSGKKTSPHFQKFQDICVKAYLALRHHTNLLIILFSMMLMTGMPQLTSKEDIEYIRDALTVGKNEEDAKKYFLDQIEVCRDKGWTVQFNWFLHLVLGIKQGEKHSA
Description: as §2

AKT-1 = AKT-1 (Homo sapiens, UniProt P31749); assay: AKT enzyme inhibition assay (ELISA, cell lysates); assay type: biochemical; details: mean ± SD of three experiments
AKT-1, sequence (P31749 whole entry): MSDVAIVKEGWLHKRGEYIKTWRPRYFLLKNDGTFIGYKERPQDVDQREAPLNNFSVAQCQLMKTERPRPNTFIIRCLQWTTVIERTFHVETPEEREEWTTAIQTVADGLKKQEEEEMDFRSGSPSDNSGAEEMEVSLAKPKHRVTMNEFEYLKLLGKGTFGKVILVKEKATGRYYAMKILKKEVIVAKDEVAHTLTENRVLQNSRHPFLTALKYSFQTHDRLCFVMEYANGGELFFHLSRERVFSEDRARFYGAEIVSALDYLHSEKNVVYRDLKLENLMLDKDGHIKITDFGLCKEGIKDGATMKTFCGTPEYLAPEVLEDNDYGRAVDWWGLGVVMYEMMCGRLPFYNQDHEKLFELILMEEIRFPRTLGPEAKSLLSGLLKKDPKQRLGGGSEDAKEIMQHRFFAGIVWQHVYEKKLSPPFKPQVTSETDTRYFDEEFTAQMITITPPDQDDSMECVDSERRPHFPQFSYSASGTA
Description: In brief, cell lysates were collected after treatment with the tested compounds using lysis buffer and centrifuged at 13,000 rpm for 15 min to obtain the cytosolic fraction. Samples were soaked with the kinase diluted buffer and the reaction was initiated by adding 10 µl of diluted ATP to each well, except blanks. Plate was incubated at 30 °C for up to 90 min covered with an adhesive plate sealer with gentle, shaking every 20 min. The reaction was stopped by emptying contents of each well. Of 40 µl of the phospho-specific substrate antibody was added except blank then incubated incubate at room temperature for 60 min, with shaking every 20 min. The liquid was aspirated and the wells washed three times with 1X washing buffer. After the last wash, liquid was aspirated and 40 µl of the diluted Anti-Rabbit IgG: HRP conjugate was added except blank, and incubated at room temperature for 30 min with shaking every 10 min. Plate was washed as described before. Of 60 µl of the TMB Substrate was added to each well and incubated at room temperature for 30–60 min. The reaction was stopped by adding 20 µl of the stop solution to each well. Absorbance was measured at 450 nm. Four concentrations from the tested compounds were prepared ranged from 0.1 to 100 µM and the assay was done in triplicates. […] LY2780301 compound was used as the positive control.

[8] = set-up: method as in PMID 32659486; details: printed in Figure 4, target not given; cited from earlier work
[9] = K562, treated at IC50 concentration

T1 sequence (O00329 whole entry): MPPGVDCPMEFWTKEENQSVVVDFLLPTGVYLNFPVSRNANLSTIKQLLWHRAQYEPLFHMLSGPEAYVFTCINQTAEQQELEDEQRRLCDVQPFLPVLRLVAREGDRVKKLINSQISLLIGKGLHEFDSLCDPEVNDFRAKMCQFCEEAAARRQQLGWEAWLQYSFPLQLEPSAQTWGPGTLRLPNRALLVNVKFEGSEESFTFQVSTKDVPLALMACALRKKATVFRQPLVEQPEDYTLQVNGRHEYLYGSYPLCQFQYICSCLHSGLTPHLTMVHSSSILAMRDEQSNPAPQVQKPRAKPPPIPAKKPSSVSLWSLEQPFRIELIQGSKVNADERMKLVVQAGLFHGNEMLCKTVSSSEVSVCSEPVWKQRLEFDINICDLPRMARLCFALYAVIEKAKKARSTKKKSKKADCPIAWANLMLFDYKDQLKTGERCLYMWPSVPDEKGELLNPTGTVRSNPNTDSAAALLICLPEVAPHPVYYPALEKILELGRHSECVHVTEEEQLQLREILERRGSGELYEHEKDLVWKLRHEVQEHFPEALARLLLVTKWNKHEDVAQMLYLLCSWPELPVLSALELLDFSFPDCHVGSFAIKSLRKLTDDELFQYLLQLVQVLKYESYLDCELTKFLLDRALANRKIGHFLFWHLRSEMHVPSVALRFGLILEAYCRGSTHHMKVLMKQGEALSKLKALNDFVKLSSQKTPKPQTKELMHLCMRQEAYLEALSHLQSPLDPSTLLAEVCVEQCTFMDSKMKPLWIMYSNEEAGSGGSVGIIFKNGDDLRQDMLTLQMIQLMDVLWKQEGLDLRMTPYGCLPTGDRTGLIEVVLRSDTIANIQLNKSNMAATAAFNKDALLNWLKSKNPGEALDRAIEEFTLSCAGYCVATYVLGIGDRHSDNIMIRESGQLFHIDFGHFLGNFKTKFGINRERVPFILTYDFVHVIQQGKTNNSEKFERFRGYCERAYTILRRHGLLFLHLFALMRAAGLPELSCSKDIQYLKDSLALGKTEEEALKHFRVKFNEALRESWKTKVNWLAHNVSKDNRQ
T1 sequence (P27986 whole entry partner): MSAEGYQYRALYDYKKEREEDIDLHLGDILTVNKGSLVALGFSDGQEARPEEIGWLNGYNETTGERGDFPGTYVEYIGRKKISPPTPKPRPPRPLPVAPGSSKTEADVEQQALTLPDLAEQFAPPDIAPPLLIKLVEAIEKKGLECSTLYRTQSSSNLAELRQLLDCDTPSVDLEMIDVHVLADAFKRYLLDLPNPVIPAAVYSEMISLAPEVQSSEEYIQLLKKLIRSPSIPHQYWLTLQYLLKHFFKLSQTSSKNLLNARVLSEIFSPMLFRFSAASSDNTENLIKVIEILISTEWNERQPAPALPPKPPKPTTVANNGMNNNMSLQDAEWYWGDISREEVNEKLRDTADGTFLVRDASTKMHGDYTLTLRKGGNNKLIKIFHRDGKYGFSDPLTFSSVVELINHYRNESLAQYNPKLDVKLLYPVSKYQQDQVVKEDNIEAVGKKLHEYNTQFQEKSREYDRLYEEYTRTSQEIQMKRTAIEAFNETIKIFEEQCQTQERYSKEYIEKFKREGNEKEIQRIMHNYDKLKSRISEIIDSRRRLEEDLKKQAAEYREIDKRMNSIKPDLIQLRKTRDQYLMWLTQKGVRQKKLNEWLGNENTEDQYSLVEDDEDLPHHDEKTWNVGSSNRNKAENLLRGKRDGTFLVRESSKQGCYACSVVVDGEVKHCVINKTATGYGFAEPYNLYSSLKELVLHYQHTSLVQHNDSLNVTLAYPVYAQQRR

Compound: COc1ccc(-c2nc(SC)nc(NN=Cc3cc(OC)c(OC)c(OC)c3)c2C#N)cc1 [7f, 4-(4-Methoxyphenyl)-2-(methylthio)-6-(2-(3,4,5-trimethoxybenzylidene)hydrazineyl)pyrimidine-5-carbonitrile]
IC50 (PI3Kδ): 4.01 ± 0.55 µM
Apoptosis% Early (K562 cells [1]): 3.19%
Apoptosis% Late (K562 cells [1]): 19.04%
Apoptosis% Total (K562 cells [1]): 31.72%
Necrosis (K562 cells [1]): 9.49%
Total increase of Annexin-V positive apoptotic cells compared to the control (K562 cells [1]): 17 fold
Western blot [OD] NFkb (NFkb): 0.402 OD
IC50 [2]: 2.62 ± 0.12 µM
Cell cycle analysis, Comment (K562 cells [3]; K562): Cell growth arrest at S phase
Increase in S-phase compared to the control (K562 cells [3]; K562): ~1.3 fold
Increase in cells in pre-G1 phase compared to the control (K562 cells [3]; K562): ~17 fold
DNA content % %G0-G1 (K562 cells [3]; [9]): 44.97%
DNA content % %Pre-G1 (K562 cells [3]; [9]): 31.72%
Western blot [OD] p-PI3K (p-PI3K): 0.281 OD
LD50 at 14 d [4]: > 2000 mg/kg
SI (selectivity index) [5]: 13.29
IC50 [6]: 34.8 ± 2.11 µM
Western blot [OD] AKT (AKT): 0.402 OD
Western blot [OD] p-AKT (p-AKT): 0.316 OD
IC50 [7]: 3.22 ± 0.18 µM
Western blot [OD] PI3K (PI3K): 0.219 OD
Western blot [OD] Cyclin D1 (Cyclin D1): 0.383 OD
IC50 (PI3Kγ): 6.99 ± 0.36 µM

Compound: COc1ccc(-c2nc(SC)nc(N3CCN(c4ccccc4)CC3)c2C#N)cc1 [4c, 4-(4-Methoxyphenyl)-2-(methylthio)-6-(4-phenylpiperazin-1-yl)pyrimidine-5-carbonitrile]
IC50 [2]: 3.86 ± 0.18 µM
IC50 [7]: 6.64 ± 0.36 µM

Compound: COc1ccc(-c2nc(SC)nc(Nc3ccc(Br)cc3)c2C#N)cc1 [5d, 4-((4-Bromophenyl)amino)-6-(4-methoxyphenyl)-2-(methylthio)pyrimidine-5-carbonitrile]
IC50 [2]: 5.52 ± 0.26 µM
IC50 [7]: 15.7 ± 0.85 µM

Compound: COc1ccc(-c2nc(SC)nc(N3CCNCC3)c2C#N)cc1 [4a, 4-(4-Methoxyphenyl)-2-(methylthio)-6-(piperazin-1-yl)pyrimidine-5-carbonitrile]
IC50 [2]: 7.97 ± 0.38 µM
IC50 [7]: 2.54 ± 0.14 µM

Compound: COc1ccc(-c2nc(SC)nc(Nc3ccc(Cl)cc3)c2C#N)cc1 [5c]
IC50 [2]: 5.82 ± 0.28 µM
IC50 [7]: 46.9 ± 2.55 µM

Compound: COc1ccc(-c2nc(SC)nc(N3CCN(c4ccccc4F)CC3)c2C#N)cc1 [4d, 4-(4-(2-Fluorophenyl)piperazin-1-yl)-6-(4-methoxyphenyl)-2-(methylthio)pyrimidine-5-carbonitrile]
IC50 (PI3Kδ): 23.9 ± 1.2 µM
melting point: 142 to 144 °C
IC50 [2]: 1.06 ± 0.05 µM
SI (selectivity index) [5]: 109.72
IC50 [6]: 116 ± 7.03 µM
IC50 [7]: 0.8 ± 0.25 µM
IC50 (PI3Kγ): 35.1 ± 1.82 µM

Compound: COc1ccc(-c2nc(SC)nc(N3CCN(C)CC3)c2C#N)cc1 [4b, 4-(4-Methoxyphenyl)-6-(4-methylpiperazin-1-yl)-2-(methylthio)pyrimidine-5-carbonitrile]
IC50 [2]: 93.6 ± 4.44 µM
IC50 [7]: 56.3 ± 3.06 µM

Compound: O=c1cc(N2CCOCC2)oc2c(-c3ccccc3)cccc12 [LY294002, reference compound]
IC50 (PI3Kδ): 13.4 ± 0.67 µM

Compound: CN(C)CCn1cc(-c2ccc(F)c(C(F)(F)F)c2)nc1C1CCN(c2ncnc3c2CC(=O)N3)CC1 [LY2780301]
IC50 (AKT-1): 4.62 ± 0.24 µM

Compound: COc1ccc(-c2nc(N/N=C/c3c[nH]c4ccccc34)nc(N3CCOCC3)c2C#N)cc1 [VIII]
IC50 [8]: 10.9 µM

Continued, in another order:

melting point: 238 to 240 °C
Compound: COc1ccc(Nc2nc(SC)nc(-c3ccc(OC)cc3)c2C#N)cc1 [5b, 4-(4-Methoxyphenyl)-6-((4-methoxyphenyl)amino)-2-(methylthio)pyrimidine-5-carbonitrile]
IC50 [2]: 46.3 ± 2.2 µM
IC50 [7]: 125 ± 6.82 µM

melting point: 170 to 172 °C
Compound: COc1ccc(-c2nc(SC)nc(N3CCN(c4ccccc4OC)CC3)c2C#N)cc1 [4e, 4-(4-Methoxyphenyl)-6-(4-(2-methoxyphenyl)piperazin-1-yl)-2-(methylthio)pyrimidine-5-carbonitrile]
IC50 [2]: 34.8 ± 1.65 µM
IC50 [7]: 15.6 ± 0.85 µM

melting point: 270 to 272 °C
Compound: COc1ccc(-c2nc(SC)nc(Nc3ccc(C)cc3)c2C#N)cc1 [5a, 4-(4-Methoxyphenyl)-2-(methylthio)-6-(p-tolylamino)pyrimidine-5-carbonitrile]
IC50 [2]: 26.3 ± 1.25 µM
IC50 [7]: 21.3 ± 1.16 µM

melting point: 248 to 250 °C
Compound: COc1ccc(-c2nc(SC)nc(NN=Cc3ccc([N+](=O)[O-])cc3)c2C#N)cc1 [7e, 4–(4-Methoxyphenyl)-2-(methylthio)-6-(2-(4-nitrobenzylidene)hydrazineyl)pyrimidine-5-carbonitrile]
IC50 [2]: 5.36 ± 0.25 µM
IC50 [7]: 7.11 ± 0.39 µM

melting point: 270 to 272 °C
Compound: COc1ccc(-c2nc(SC)nc(NN)c2C#N)cc1 [compound 6, 4-Hydrazineyl-6-(4-methoxyphenyl)-2-(methylthio)pyrimidine-5-carbonitrile]
IC50 [2]: 6.67 ± 0.32 µM
IC50 [7]: 3.49 ± 0.19 µM

melting point: 244 to 246 °C
Compound: COc1ccc(C=NNc2nc(SC)nc(-c3ccc(OC)cc3)c2C#N)cc1 [7b, 4-(2-(4-Methoxybenzylidene)hydrazineyl)-6-(4-methoxyphenyl)-2-(methylthio)pyrimidine-5-carbonitrile]
IC50 [2]: 16.8 ± 0.8 µM
IC50 [7]: 22.9 ± 1.24 µM

melting point: 246 to 248 °C
Compound: COc1ccc(-c2nc(SC)nc(NN=Cc3ccc(C)cc3)c2C#N)cc1 [7a, 4–(4-Methoxyphenyl)-6-(2-(4-methylbenzylidene)hydrazineyl)-2-(methylthio)pyrimidine-5-carbonitrile]
IC50 [2]: 22.8 ± 1.08 µM
IC50 [7]: 30.5 ± 1.66 µM

melting point: 266 to 268 °C
Compound: COc1ccc(-c2nc(SC)nc(NN=Cc3ccc(Cl)cc3)c2C#N)cc1 [7c, 4-(2-(4-Chlorobenzylidene)hydrazineyl)-6-(4-methoxyphenyl)-2-(methylthio)pyrimidine-5-carbonitrile]
IC50 [2]: 3.76 ± 0.18 µM
IC50 [7]: 7.42 ± 0.4 µM

melting point: 246 to 248 °C
Compound: COc1ccc(-c2nc(SC)nc(NN=Cc3ccc(Br)cc3)c2C#N)cc1 [7d, 4-(2-(4-Bromobenzylidene)hydrazineyl)-6-(4-methoxyphenyl)-2-(methylthio)pyrimidine-5-carbonitrile]
IC50 [2]: 44.3 ± 2.1 µM
IC50 [7]: 56 ± 3.05 µM
